From ChEMBL document CHEMBL5352433, “Design, synthesis, and biological evaluation of low-toxic lappaconitine derivatives as potential analgesics” (Eur J Med Chem, 2022)

Tests used:
[1] = Therapeutic index, ratio of LD50 for acute toxicity in sc dosed Kunming mouse to ratio of ED50 for analgesic activity against sc dosed acetic acid-induced Kunming writhing mouse model; type: organism-based; settings: in vivo, read-out: TI
Mus musculus [2] = assay: Analgesic activity against sc dosed acetic acid-induced Kunming writhing mouse model assessed as inhibition of writhing pretreated with compound for 15 mins followed by acetic acid addition and measured after 15 mins; type: functional; settings: 0.5 h, time 30 min
[3] = Acute toxicity in sc dosed Kunming mouse assessed as mortality rate measured after 24 hrs; type: organism-based; settings: in vivo
[4] = Drug metabolism in sc dosed acetic acid-induced Kunming writhing mouse model assessed as metabolites in feces; type: ADME, organism-based; settings: in vivo
Mus musculus [5] = assay: Analgesic activity against acetic acid-induced Kunming writhing mouse model assessed as inhibition of writhing at 10 mg/kg, sc pretreated with compound for 15 mins followed by acetic acid addition and measured after 15 mins relative to control; type: functional; settings: 0.5 h, time 30 min
[6] = biological target: T1, Voltage-gated inwardly rectifying potassium channel KCNH2 (Homo sapiens, UniProt Q12809); assay: Inhibition of hERG expressed in HEK cells assessed as Rb+ efflux ratio at 1 mg/L incubated for 4 mins (reference value: 79.71 to 94.98 %); type: toxicity, cell-based; design: scale not given: the % may be the effect or the level left; settings: at 1 µg/mL
[7] = Drug metabolism in sc dosed acetic acid-induced Kunming writhing mouse model assessed as metabolites in urine; type: ADME, organism-based; settings: in vivo
[8] = biological target: T1, Voltage-gated inwardly rectifying potassium channel KCNH2; assay: Inhibition of hERG expressed in HEK cells assessed as Rb+ efflux ratio at 10 mg/L incubated for 4 mins (reference value: 79.71 to 94.98 %); type: toxicity, cell-based; design: scale not given: the % may be the effect or the level left; settings: at 10 µg/mL
[9] = biological target: T1, Voltage-gated inwardly rectifying potassium channel KCNH2; assay: Inhibition of hERG expressed in HEK cells assessed as Rb+ efflux ratio at 100 mg/L incubated for 4 mins (reference value: 79.71 to 94.98 %); type: toxicity, cell-based; design: scale not given: the % may be the effect or the level left; settings: at 100 µg/mL
Mus musculus [10] = assay: Analgesic activity against acetic acid-induced Kunming writhing mouse model assessed as inhibition of writhing at 3.5 mg/kg, sc pretreated with compound for 15 mins followed by acetic acid addition and measured after 15 mins relative to control; type: functional; settings: 0.5 h, time 30 min

T1 sequence (Q12809 whole entry): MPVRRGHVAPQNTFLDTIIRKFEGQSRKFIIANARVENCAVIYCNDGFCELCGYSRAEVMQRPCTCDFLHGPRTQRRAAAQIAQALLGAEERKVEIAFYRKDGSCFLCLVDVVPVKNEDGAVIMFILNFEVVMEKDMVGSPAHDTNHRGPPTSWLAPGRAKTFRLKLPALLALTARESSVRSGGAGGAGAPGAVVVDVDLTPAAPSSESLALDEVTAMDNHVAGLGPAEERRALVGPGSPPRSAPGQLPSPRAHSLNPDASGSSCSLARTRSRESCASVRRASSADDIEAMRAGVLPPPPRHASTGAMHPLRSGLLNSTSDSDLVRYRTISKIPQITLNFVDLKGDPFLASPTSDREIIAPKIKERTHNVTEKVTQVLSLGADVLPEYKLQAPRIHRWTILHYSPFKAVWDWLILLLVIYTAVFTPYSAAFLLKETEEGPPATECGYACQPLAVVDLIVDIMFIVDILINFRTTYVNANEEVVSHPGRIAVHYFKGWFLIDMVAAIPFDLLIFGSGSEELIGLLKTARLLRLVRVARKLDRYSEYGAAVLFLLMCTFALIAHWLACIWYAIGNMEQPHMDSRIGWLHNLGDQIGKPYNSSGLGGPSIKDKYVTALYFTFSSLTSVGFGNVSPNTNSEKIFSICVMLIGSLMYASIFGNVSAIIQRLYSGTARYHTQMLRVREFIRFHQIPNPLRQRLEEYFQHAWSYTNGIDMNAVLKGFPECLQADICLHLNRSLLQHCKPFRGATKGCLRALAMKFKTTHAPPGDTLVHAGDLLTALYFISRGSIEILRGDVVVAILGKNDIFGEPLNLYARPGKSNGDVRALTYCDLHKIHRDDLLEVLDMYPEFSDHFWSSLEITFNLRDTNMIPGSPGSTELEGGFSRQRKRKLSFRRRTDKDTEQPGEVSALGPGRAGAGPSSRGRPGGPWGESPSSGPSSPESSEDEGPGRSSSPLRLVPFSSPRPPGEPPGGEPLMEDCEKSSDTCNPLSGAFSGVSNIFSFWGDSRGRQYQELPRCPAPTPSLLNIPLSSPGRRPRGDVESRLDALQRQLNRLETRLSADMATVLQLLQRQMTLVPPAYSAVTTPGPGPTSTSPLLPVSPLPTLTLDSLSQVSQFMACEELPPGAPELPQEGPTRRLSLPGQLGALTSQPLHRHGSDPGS

Row | SMILES | selectivity ratio [1] | ED50 (Mus musculus [2]) | LD50 at 24 h [3] | Drug metabolism [4] | inhibition in vivo at 10 mg/kg (Mus musculus [5]) | Activity [6] | Drug metabolism [7] | Activity [8] | Activity [9] | inhibition in vivo at 3.5 mg/kg (Mus musculus [10])
1 | CCN1C[C@]2(OC(=O)c3ccccc3NS(=O)(=O)c3ccccc3)CC[C@H](OC)[C@]34C1[C@H](C[C@H]23)[C@@]1(O)C[C@H](OC)[C@H]2C[C@@H]4[C@]1(O)[C@H]2OC | > 98.3 | 6.1 mg/kg | > 600 mg/kg | Metabolite_Detected | 84.3% | 88.87% | Metabolite_Detected | 72.11% | 44.12% | –
2 | CCN1C[C@]2(OC(=O)c3ccccc3NC(=O)c3ccc(N(C)C)cc3)CC[C@H](OC)[C@]34C1[C@H](C[C@H]23)[C@@]1(O)C[C@H](OC)[C@H]2C[C@@H]4[C@]1(O)[C@H]2OC | 48.5 | 6.2 mg/kg | 300 mg/kg | Metabolite_Detected | 62.1% | 87.34% | Metabolite_Detected | 85.86% | 84.7% | –
3 | CCN1C[C@]2(OC(=O)c3ccccc3NS(=O)(=O)c3ccccc3OC)CC[C@H](OC)[C@]34C1[C@H](C[C@H]23)[C@@]1(O)C[C@H](OC)[C@H]2C[C@@H]4[C@]1(O)[C@H]2OC | 54.5 | 5.5 mg/kg | 300 mg/kg | Metabolite_Detected | 71.2% | 80.88% | Metabolite_Detected | 65.13% | 50.83% | –
4 | C/C=C/C(=O)Nc1ccccc1C(=O)O[C@@]12CC[C@H](OC)[C@]34C([C@H](C[C@H]13)[C@@]1(O)C[C@H](OC)[C@H]3C[C@@H]4[C@]1(O)[C@H]3OC)N(CC)C2 | – | – | – | – | – | – | – | – | – | 24.4%
5 | CCN1C[C@]2(OC(=O)c3ccccc3NC(=O)C3CC3)CC[C@H](OC)[C@]34C1[C@H](C[C@H]23)[C@@]1(O)C[C@H](OC)[C@H]2C[C@@H]4[C@]1(O)[C@H]2OC | – | – | – | – | – | – | – | – | – | 33.5%
6 | CCN1C[C@]2(OC(=O)c3ccccc3NC(=O)c3ccc(OC)cc3)CC[C@H](OC)[C@]34C1[C@H](C[C@H]23)[C@@]1(O)C[C@H](OC)[C@H]2C[C@@H]4[C@]1(O)[C@H]2OC | 67.4 | 4.4 mg/kg | 296 mg/kg | – | 62.8% | 77% | – | 76.58% | 69.69% | –
7 | CCN1C[C@]2(OC(=O)c3ccccc3N)CC[C@H](OC)[C@]34C1[C@H](C[C@H]23)[C@@]1(O)C[C@H](OC)[C@H]2C[C@@H]4[C@]1(O)[C@H]2OC | – | – | – | – | – | 96.05% | – | 92.35% | 65.7% | –
8 | CCN1C[C@]2(OC(=O)c3ccccc3NC(C)=O)CC[C@H](OC)[C@]34C1[C@H](C[C@H]23)[C@@]1(O)C[C@H](OC)[C@H]2C[C@@H]4[C@]1(O)[C@H]2OC | – | 3.5 mg/kg | 11.7 mg/kg | – | – | – | – | – | – | 56.6%
9 | CCN1C[C@]2(OC(=O)c3ccccc3NC(=O)CC(C)(C)C)CC[C@H](OC)[C@]34C1[C@H](C[C@H]23)[C@@]1(O)C[C@H](OC)[C@H]2C[C@@H]4[C@]1(O)[C@H]2OC | – | – | – | – | – | – | – | – | – | 24.9%
10 | CCOc1ccc(C(=O)Nc2ccccc2C(=O)O[C@@]23CC[C@H](OC)[C@]45C([C@H](C[C@H]24)[C@@]2(O)C[C@H](OC)[C@H]4C[C@@H]5[C@]2(O)[C@H]4OC)N(CC)C3)cc1 | 47.7 | 6.6 mg/kg | 315 mg/kg | – | 62.8% | 79.38% | – | 80.07% | 76.45% | –
11 | CCN1C[C@]2(OC(=O)c3ccccc3NS(=O)(=O)c3ccccn3)CC[C@H](OC)[C@]34C1[C@H](C[C@H]23)[C@@]1(O)C[C@H](OC)[C@H]2C[C@@H]4[C@]1(O)[C@H]2OC | > 85.1 | 4.7 mg/kg | > 400 mg/kg | Metabolite_Detected | 71.2% | 95.97% | Metabolite_Detected | 88.42% | 73.6% | –
12 | CCN1C[C@]2(OC(=O)c3ccccc3NC(=O)c3ccc(OC(C)C)cc3)CC[C@H](OC)[C@]34C1[C@H](C[C@H]23)[C@@]1(O)C[C@H](OC)[C@H]2C[C@@H]4[C@]1(O)[C@H]2OC | 24.2 | 8.1 mg/kg | 196 mg/kg | – | 51.1% | – | – | – | – | –
13 | CCCOc1ccc(C(=O)Nc2ccccc2C(=O)O[C@@]23CC[C@H](OC)[C@]45C([C@H](C[C@H]24)[C@@]2(O)C[C@H](OC)[C@H]4C[C@@H]5[C@]2(O)[C@H]4OC)N(CC)C3)cc1 | 20.9 | 10.2 mg/kg | 214 mg/kg | – | 48.4% | – | – | – | – | –
